Assay results published in patent US10954214B2 (Janssen Pharmaceutica NV, priority 2016, dated 2021).

Columns and labels:
[1] = biological target: full-length MALT1 protein (Strep-MALT1(1-824)-His) (Homo sapiens (Human), UniProt Q9UDY8); assay: MALT1 Biochemical Protease Assay (Ac-LRSR-AMC substrate); conditions: 10 nM FL MALT1, 200 μM Ac-LRSR-AMC, 4 h at RT; read-out: MALT1_Biochemical activity (Ac-LRSR-amc) IC50
How it was run: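 Fluorescence from AMC release off the quenched LRSR substrate was read after a 4 h reaction at RT. Values were normalised to no-enzyme and uninhibited controls and fitted for IC50 and Hill coefficient.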

[2] = test system: IL6 secretion by TMD8 ABC-DLBCL cells; assay: Human IL6 Mesoscale assay (TMD-8); format: cell-based; conditions: Homo sapiens, TMD8; TMD-8 cells, 24 h
How it was run: (§1)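 TMD8 or OCI-LY3 cells (100,000/well) were exposed to compounds in 9 twofold dilutions from 15 μM to 58.6 nM (0.3% DMSO) for 24 h at 37 °C. Supernatant IL6 and IL10 were quantified by MSD electrochemiluminescence immunoassay. DMSO defined maximum signal and BTK inhibitor RN486 (30 nM–131 pM) defined maximum inhibition.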

[3] = test system: IL10 secretion by TMD8 ABC-DLBCL cells; assay: Human IL10 Mesoscale assay (TMD-8); format: cell-based; conditions: Homo sapiens, TMD8; TMD-8 cells, 24 h
How it was run: as §1

[4] = test system: OCI-Ly3 cells; assay: 4-day proliferation assay, OCI-Ly3; format: cell-based, human; conditions: Homo sapiens, 96 h, 4 days incubation, CellTiterGLO, read-out: Anti-proliferation: OCI-LY-3 IC50
Protocol: (§2) To assess anti-proliferative effects, MALT1 inhibitor test compounds were tested in 4-day proliferation assays using three different DLBCL cell lines.
(§3) Cells should be kept between 0.5-2.5 million cells per mL during culturing and cells should be supplemented every 2-3 days with fresh 50 μM beta-mercaptoenthanol. No beta-mercaptoethanol is used during the proliferation assay. OCI-Ly7 cells were propagated in IMDM (ThermoFisher) supplemented with 10% fetal bovine serum (HyClone), 2 mM L-glutamine (Sigma Aldrich) and 50 μg/mL Gentamycin. Cell passage numbers should not exceed 30 (for OCI-Ly3 cells with passage number lower than 10 were used).
(§4) 10,000 TMD8, 10,000 OCI-Ly3 or 2,000 OCI-Ly7 cells were seeded in 100 μL media per well and incubated for 4 days at 37° C. and 5% CO2. Cell plating numbers were chosen based on growth curves to ensure linear cell growth. After 4 days of incubation 50 μL CellTiterGLO reagent (Promega) were added to each well and luminescence was measured on the Envision after 10 min of incubation at room temperature.
(§5) LC=median of the low control values
(§6) An estimate of the slope of the plot in terms of the Hill coefficient was also obtained.

[5] = test system: TMD8 cells; assay: 4-day proliferation assay, TMD8; format: cell-based; conditions: Homo sapiens, 96 h, 4 days incubation, CellTiterGLO, read-out: Anti-proliferation: TMD-8 IC50
Protocol: as §2, §3, §4, §5, §6

Sequence of full-length MALT1 protein (Strep-MALT1(1-824)-His) (Q9UDY8 whole entry): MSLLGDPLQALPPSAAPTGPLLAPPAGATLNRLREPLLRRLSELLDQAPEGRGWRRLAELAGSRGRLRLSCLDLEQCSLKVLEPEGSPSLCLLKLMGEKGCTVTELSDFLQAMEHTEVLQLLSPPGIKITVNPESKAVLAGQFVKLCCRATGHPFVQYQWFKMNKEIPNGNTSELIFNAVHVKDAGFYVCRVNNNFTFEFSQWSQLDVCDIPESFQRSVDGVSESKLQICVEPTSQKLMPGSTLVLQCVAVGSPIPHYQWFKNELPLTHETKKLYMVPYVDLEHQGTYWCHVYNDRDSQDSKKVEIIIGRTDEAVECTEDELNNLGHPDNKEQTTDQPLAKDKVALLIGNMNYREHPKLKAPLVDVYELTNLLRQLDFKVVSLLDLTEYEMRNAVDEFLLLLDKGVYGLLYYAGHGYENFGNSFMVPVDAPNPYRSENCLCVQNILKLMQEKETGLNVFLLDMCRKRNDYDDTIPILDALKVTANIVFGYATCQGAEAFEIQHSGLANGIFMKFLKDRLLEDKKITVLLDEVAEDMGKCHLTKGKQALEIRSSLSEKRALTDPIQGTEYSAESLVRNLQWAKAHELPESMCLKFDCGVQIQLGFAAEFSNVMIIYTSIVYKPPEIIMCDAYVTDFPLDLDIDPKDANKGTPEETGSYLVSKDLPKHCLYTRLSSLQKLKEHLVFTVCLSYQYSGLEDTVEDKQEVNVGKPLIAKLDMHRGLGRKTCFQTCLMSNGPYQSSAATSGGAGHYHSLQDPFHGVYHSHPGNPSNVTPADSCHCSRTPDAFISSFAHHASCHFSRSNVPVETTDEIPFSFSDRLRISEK

| IC50 [1] | IC50 [2] | IC50 [3] | IC50 [4] | SMILES | IC50 [5] |
| --- | --- | --- | --- | --- | --- |
| 34 nM | 32 nM | 43 nM | 510 nM | N#Cc1cc(NC(=O)c2cnn(-c3cccc4ncccc34)c2C(F)(F)F)cnc1-n1nccn1 [Cpd 83, N-(5-cyano-6-(2H-1,2,3-triazol-2-yl)pyridin-3-yl)-1-(quinolin-5-yl)-5-(trifluoromethyl)-1H-pyrazole-4-carboxamide] | ~8320 nM |
| 43 nM | 7240 nM | 4170 nM | 939 nM | COC(=O)c1ccc(NC(=O)c2cnn(-c3cccc4ncccc34)c2C(F)(F)F)cc1C#N [Cpd 313, methyl 2-cyano-4-(1-(quinolin-5-yl)-5-(trifluoromethyl)-1H-pyrazole-4-carboxamido)benzoate] | 7940 nM |
| 141 nM | 331 nM | 288 nM | 500 nM | Nc1nccc(-c2ccc(NC(=O)c3cnn(-c4cncc5ccccc45)c3C(F)(F)F)cc2Cl)n1 [Cpd 58, N-(4-(2-Aminopyrimidin-4-yl)-3-chlorophenyl)-1-(isoquinolin-4-yl)-5-(trifluoromethyl)-1H-pyrazole-4-carboxamide] | 4470 nM |
| 32 nM | 105 nM | 112 nM | 692 nM | N#Cc1cc(NC(=O)c2cnn(-c3nccn4cccc34)c2C(F)(F)F)cnc1-n1nccn1 [Cpd 148, N-(5-cyano-6-(2H-1,2,3-triazol-2-yl)pyridin-3-yl)-1-(pyrrolo[1,2-a]pyrazin-1-yl)-5-(trifluoromethyl)-1H-pyrazole-4-carboxamide] | 3800 nM |
| 20 nM | 58 nM | 46 nM | 1010 nM | Nc1cnn(-c2ncc(NC(=O)c3cnn(-c4cccc5c(=O)[nH]ccc45)c3C(F)(F)F)cc2Cl)n1 [Cpd 134, N-(6-(4-amino-2H-1,2,3-triazol-2-yl)-5-chloropyridin-3-yl)-1-(1-oxo-1,2-dihydroisoquinolin-5-yl)-5-(trifluoromethyl)-1H-pyrazole-4-carboxamide] | 20000 nM |
| 17 nM | 56 nM | 21 nM | 265 nM | [2H]c1ccc2c(-n3ncc(C(=O)Nc4cnc(-n5nccn5)c(Cl)c4)c3C(F)(F)F)cccc2n1 [Cpd 131, N-(5-chloro-6-(2H-1,2,3-triazol-2-yl)pyridin-3-yl)-1-(2-Dquinolin-5-yl)-5-(trifluoromethyl)-1H-pyrazole-4-carboxamide] | 2630 nM |
| 51 nM | 5010 nM | 2950 nM | 1360 nM | O=C(Nc1cnc(-n2nccn2)c(Cl)c1)c1cnn(-c2ccc(F)c3nccn23)c1C(F)(F)F [Cpd 202, N-(5-chloro-6-(2H-1,2,3-triazol-2-yl)pyridin-3-yl)-1-(8-fluoroimidazo[1,2-a]pyridin-5-yl)-5-(trifluoromethyl)-1H-pyrazole-4-carboxamide] | 2340 nM |
| 21 nM | 98 nM | 135 nM | 520 nM | N#Cc1cc(NC(=O)c2cnn(-c3nccc4sccc34)c2C(F)(F)F)cnc1-n1nccn1 [Cpd 90, N-(5-cyano-6-(2H-1,2,3-triazol-2-yl)pyridin-3-yl)-1-(thieno[3,2-c]pyridin-4-yl)-5-(trifluoromethyl)-1H-pyrazole-4-carboxamide] | ~3890 nM |
| 59 nM | 550 nM | 240 nM | 1730 nM | COCc1cnn(-c2ncc(NC(=O)c3cnn(-c4cccc5ncccc45)c3C(F)(F)F)cc2Cl)n1 [Cpd 173, N-(5-chloro-6-(4-(methoxymethyl)-2H-1,2,3-triazol-2-yl)pyridin-3-yl)-1-(quinolin-5-yl)-5-(trifluoromethyl)-1H-pyrazole-4-carboxamide] | 2690 nM |
| 43 nM | 81 nM | 85 nM | 220 nM | O=C(Nc1cnc(-n2nccn2)c(Cl)c1)c1cnn(-c2nccc3ccccc23)c1C(F)(F)F [Cpd 57, N-(5-chloro-6-(2H-1,2,3-triazol-2-yl)pyridin-3-yl)-1-(isoquinolin-1-yl)-5-(trifluoromethyl)-1H-pyrazole-4-carboxamide] | ~8910 nM |
| 54 nM | 214 nM | 166 nM | 837 nM | O=C(Nc1cnc(-n2nccn2)c(Cl)c1)c1cnn(-c2cnc(CO)c3ccccc23)c1C(F)(F)F [Cpd 385, N-(5-chloro-6-(2H-1,2,3-triazol-2-yl)pyridin-3-yl)-1-(1-(hydroxymethyl)isoquinolin-4-yl)-5-(trifluoromethyl)-1H-pyrazole-4-carboxamide] | 1510 nM |
| 22 nM | 2510 nM | 2340 nM | 776 nM | N#Cc1cc(NC(=O)c2cnn(-c3cnc(N)c4ccccc34)c2C(F)(F)F)cnc1-n1nccn1 [Cpd 156, 1-(1-aminoisoquinolin-4-yl)-N-(5-cyano-6-(2H-1,2,3-triazol-2-yl)pyridin-3-yl)-5-(trifluoromethyl)-1H-pyrazole-4-carboxamide] | 5250 nM |
| 2040 nM | 331 nM | 331 nM | 912 nM | O=C(Nc1cnc(-n2nccn2)c(Cl)c1)c1cnn(-c2cccc3nc(Cl)ccc23)c1C(F)(F)F [Cpd 221, N-(5-chloro-6-(2H-1,2,3-triazol-2-yl)pyridin-3-yl)-1-(2-chloroquinolin-5-yl)-5-(trifluoromethyl)-1H-pyrazole-4-carboxamide] | 2570 nM |
| 295 nM | 2040 nM | 1440 nM | ~1150 nM | O=C(Nc1cnc(-c2nccs2)c(Cl)c1)c1cnn(-c2cncc3ccccc23)c1C(F)(F)F [compound 63, N-(5-chloro-6-(thiazol-2-yl)pyridin-3-yl)-1-(isoquinolin-4-yl)-5-(trifluoromethyl)-1H-pyrazole-4-carboxamide] | > 7940 nM |
| 389 nM | 339 nM | 112 nM | 905 nM | N#Cc1cc(NC(=O)c2cnn(-c3nccn4nccc34)c2C(F)(F)F)cnc1-n1nccn1 [Cpd 425, N-(5-cyano-6-(2H-1,2,3-triazol-2-yl)pyridin-3-yl)-1-(pyrazolo[1,5-a]pyrazin-4-yl)-5-(trifluoromethyl)-1H-pyrazole-4-carboxamide] | 11000 nM |
| 21 nM | 45 nM | 31 nM | 414 nM | O=C(Nc1cnc(-n2ncc(CO)n2)c(Cl)c1)c1cnn(-c2cccc3ncccc23)c1C(F)(F)F [Cpd 136, N-(5-chloro-6-(4-(hydroxymethyl)-2H-1,2,3-triazol-2-yl)pyridin-3-yl)-1-(quinolin-5-yl)-5-(trifluoromethyl)-1H-pyrazole-4-carboxamide] | 2290 nM |
| 117 nM | 646 nM | 302 nM | 3800 nM | CN1C(=O)COc2c(Cl)cc(NC(=O)c3cnn(-c4cccc5ncccc45)c3C(F)(F)F)cc21 [Cpd 95, N-(8-Chloro-4-methyl-3-oxo-3,4-dihydro-2H-benzo[b][1,4]oxazin-6-yl)-1-(quinolin-5-yl)-5-(trifluoromethyl)-1H-pyrazole-4-carboxamide] | ~7940 nM |
| 257 nM | 490 nM | 275 nM | 540 nM | O=C(Nc1cnc(-n2nccn2)c(Cl)c1)c1cnn(-c2nccc3ccccc23)c1C(F)F [Cpd 56, N-(5-Chloro-6-(2H-1,2,3-triazol-2-yl)pyridin-3-yl)-5-(difluoromethyl)-1-(isoquinolin-1-yl)-1H-pyrazole-4-carboxamide] | > 20000 nM |
| 44 nM | 933 nM | 363 nM | 1710 nM | N#Cc1cc(NC(=O)c2cnn(-c3cccc4ncccc34)c2C(F)(F)F)cnc1-n1ncc(CO)n1 [Cpd 177, N-(5-cyano-6-(4-(hydroxymethyl)-2H-1,2,3-triazol-2-yl)pyridin-3-yl)-1-(quinolin-5-yl)-5-(trifluoromethyl)-1H-pyrazole-4-carboxamide] | 6610 nM |
| 37 nM | 251 nM | 155 nM | 1950 nM | N#Cc1cc(NC(=O)c2cnn(-c3nccc4ncccc34)c2C(F)(F)F)cnc1-n1nccn1 [Cpd 100, N-(5-cyano-6-(2H-1,2,3-triazol-2-yl)pyridin-3-yl)-1-(1,6-naphthyridin-5-yl)-5-(trifluoromethyl)-1H-pyrazole-4-carboxamide] | ~5250 nM |
